Laboratory results as given in patent US20230391752A1, “PYRROLIDINE-3-CARBOXAMIDE DERIVATIVES AND RELATED USES” (Chulalongkorn University, priority 2020, published 2023).

How the values were obtained:
HBV [1] = test: In vitro anti-HBV activity in HepG2.2.15 cell line (intracellular HBV DNA by qPCR at 1 μM); assay type: cell-based; details: Hepatitis B virus, 144 h; HepG2.2.15 cells, 1 μM compound, 6 days, intracellular HBV DNA as percentage compared to vehicle control (0.5% DMSO)
Procedure, shortened: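 HepG2.2.15 cells given compound at 1 μM (0.5% DMSO final) for 3 days, then fresh compound-containing medium for 3 more days. After 6 days intracellular HBV DNA measured by qPCR. Expressed as % of 0.5% DMSO vehicle control and binned into letter ranges.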

HBV [2] = test: Effect on intrahepatic HBV DNA levels in HepG2.2.15 cells (EC50); assay type: cell-based; details: Hepatitis B virus, 144 h, 6 days, intrahepatic HBV DNA by qPCR, read-out: Anti-HBV DNA (EC50)
Procedure, shortened: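 Over 6 days at 37° C., HepG2.2.15 cells were treated with compound in 10% FCS medium, refreshed with compound after day 3. Intracellular HBV DNA was quantified by qPCR from cell lysates, and EC50 fitted by nonlinear regression relative to no-drug controls.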

[3] = Cytotoxicity (MTT) in HepG2.2.15 cells; assay type: cell-based; details: human, 6 days treatment, read-out: HepG2.1.15 cytotoxicity (CC50)
Procedure, shortened: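 Adhered HepG2.2.15 cells were exposed to compounds for 6 days, then given […] MTT in serum-free medium for 2 h. Formazan dissolved in DMSO was read at 570 nm. CC50 (50% cell death) came from four-parameter fitting of viability versus concentration.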

HBV core protein (Cp149) = target: T1, HBV core protein (Cp149) (Hepatitis B virus genotype D subtype ayw, UniProt P03146); test: HBV capsid assembly by size exclusion chromatography (SEC); assay type: biochemical; details: 50 μM compound, 15 μM Cp149, 16 hours at 21° C.
T1 construct: HBV core C-terminally truncated protein (HBV Cp149); made in house

HBV genotype D = test: HBV-infected primary human hepatocytes (PHH); assay type: cell-based, Hepatitis B virus
Description: Primary human hepatocytes (PHH) were infected with HBV genotype D produced from HepG2.2.15 cell line on day 1 after plating. Subsequently, the PHH were treated with various concentrations of compounds into 2 different treatment schemes. For treatment scheme 1, the compounds were added into PHH simultaneously with infection media, and incubated for additional 6 days. For treatment scheme 2, the compounds were added into PHH at day 3 after infection, and further incubated for 6 days. After treatment, the cell culture supernatants were collected for the determinations of HBV DNA by qPCR, pgRNA by RT-PCR, HBsAg and HBeAg by ELISA, and cell viability by CCK-8. The cells were harvested for detection of intracellular cccDNA by southern blot.

HBV genotypes A to D = assay type: cell-based; details: transfected HepG2 cells
[4] = target: T2, HBV construct U95551 (wild-type) (Hepatitis B virus genotype D subtype ayw, UniProt P03146); assay type: cell-based; details: relative to the wild type construct
T2 construct: expressed in transfected cells; host or cells: HepG2

[5] = target: HBV core protein variant F23Y (Hepatitis B virus genotype D subtype ayw, UniProt P03146, F23Y); test: Anti-HBV activity in core protein variants: F23Y; assay type: cell-based; details: relative to the wild type construct
[6] = target: HBV core protein variant D29G (Hepatitis B virus genotype D subtype ayw, UniProt P03146, D29G); test: Anti-HBV activity in core protein variants: D29G; assay type: cell-based; details: relative to the wild type construct
[7] = target: HBV core protein variant T33N (Hepatitis B virus genotype D subtype ayw, UniProt P03146, T33N); test: Anti-HBV activity in core protein variants: T33N; assay type: cell-based; details: relative to the wild type construct
[8] = target: HBV core protein variant I105T (Hepatitis B virus genotype D subtype ayw, UniProt P03146, I105T); test: Anti-HBV activity in core protein variants: I105T; assay type: cell-based; details: relative to the wild type construct
[9] = target: HBV core protein variant T109I (Hepatitis B virus genotype D subtype ayw, UniProt P03146, T109I); test: Anti-HBV activity in core protein variants: T109I; assay type: cell-based; details: relative to the wild type construct
[10] = target: HBV core protein variant T109M (Hepatitis B virus genotype D subtype ayw, UniProt P03146, T109M); test: Anti-HBV activity in core protein variants: T109M; assay type: cell-based; details: relative to the wild type construct
[11] = target: HBV core protein variant Y118F (Hepatitis B virus genotype D subtype ayw, UniProt P03146, Y118F); test: Anti-HBV activity in core protein variants: Y118F; assay type: cell-based; details: relative to the wild type construct
[12] = Pharmacokinetic study in rats; assay type: in vivo, male Sprague-Dawley rats
Description: (§1) Test compounds were administered to male Sprague-Dawley rats and male Beagle dogs by oral (PO) and intravenous (TV) administration. For TV dosing, test compounds were dosed at 0.2 to 0.5 mg/kg using a formulation of 10% dimethyl sulfoxide in 20% hydroxypropyl beta-cyclodextrin solution via IV bolus. For PO dosing, test compounds were dosed at 0.3 to 2.0 mg/kg using a formulation of 40% polyethylene glycol 400 in water via oral gavage. Blood samples were collected at pre-dose and various time points up to 24 hours post-dose, and centrifuged to obtain plasma samples. The plasma concentrations of test compounds were quantified by LC-MS/MS methods. The relevant pharmacokinetic parameters (Table D) were calculated via non-compartmental analysis using WinNonlin (Phoenix™, version 8.3).

[13] = Pharmacokinetic study in dogs; assay type: in vivo, male Beagle dogs
Description: as §1

HBV capsid = target: T3, HBV capsid (Hepatitis B virus genotype D subtype ayw, UniProt P03146); test: Mechanistic study in stably HBV expressed HepG2.2.15 cells (capsid, encapsidated DNA/RNA, core protein blots); assay type: cell-based; details: HepG2.2.15, 6 days
T3 construct: expressed in transfected cells; host or cells: HepG2.2.15
Description: The stably HBV expressed HepG2.2.15 cells were treated with test compounds, at various concentrations in culture medium, at 37° C. for three days. After that the medium was removed and fresh medium containing the compound was added to the cells for another 3 days. After 6 days of treatment, cellular lysates from the treated cells were assessed by non-denatured agarose gel electrophoresis. HBV capsid was detected by western blot with monoclonal anti-HBV core. Encapsidated HBV DNA and RNA were detected by southern blot and northern blot. Intracellular HBV core protein was assessed by western Blot with a monoclonal mouse anti-HBV core. β-actin protein assessed by western blot was used as an internal control.

Cc1cc(NC(=O)[C@H]2CCN(C(=O)c3ccc(-c4c(C)ncnc4C)[nH]3)[C@H]2C)ccc1F [Example 149, (2S,3S)-1-(5-(4,6-dimethylpyrimidin-5-yl)-1H-pyrrole-2-carbonyl)-N-(4-fluoro-3-methylphenyl)-2-methylpyrrolidine-3-carboxamide]
activity at 1 µM (HBV [1]): < 45%
EC50 (HBV [2]): < 0.05 µM
CC50 at 6 days [3]: 10 to 25 µM
Size of induced capsids based on SEC retention times (HBV core protein (Cp149)): induced capsids similar in size to NVR 3-778
HBeAg in PHH (HBV genotype D; treatment scheme 1): inhibited
HBsAg in PHH (HBV genotype D; treatment scheme 1): inhibited
HBV DNA in PHH (HBV genotype D; treatment scheme 1 (compound added simultaneously with infection media, 6 days)): inhibited
cccDNA establishment in PHH (HBV genotype D; treatment scheme 1, southern blot): inhibited
Anti-HBV activity across HBV genotypes (HBV genotypes A to D): effective across all HBV genotypes tested (A to D)
Fold change in EC50, U95551 (wild-type) [4]: B (B=1-5)
Fold change in EC50, F23Y [5]: C (C=5-15)
Fold change in EC50, D29G [6]: B (B=1-5)
Fold change in EC50, T33N [7]: D (D>15)
Fold change in EC50, I105T [8]: B (B=1-5)
Fold change in EC50, T109I [9]: A (A<1)
Fold change in EC50, T109M [10]: A (A<1)
Fold change in EC50, Y118F [11]: A (A<1)
CL (mL/min/kg) Rat ([12]; IV 0.2 to 0.5 mg/kg): 20.0 mL/min/kg
F (%) Rat ([12]; PO 0.3 to 2.0 mg/kg): 44%
Vd ([12]; male, Sprague-Dawley, plasma, rat, IV 0.2 to 0.5 mg/kg, read-out: Vd,ss (L/kg) Rat): 2.92 L/kg
half-life ([12]; male, Sprague-Dawley, rat, plasma, read-out: t1/2 (h) Rat (converted)): 6.5 h
F (%) Dog ([13]; PO 0.3 to 2.0 mg/kg): 63%
half-life ([13]; male, Beagle, dog, plasma, read-out: t1/2 (h) Dog (converted)): 4.5 h
clearance ([13]; male, Beagle, plasma, dog, IV 0.2 to 0.5 mg/kg, read-out: CL (mL/min/kg) Dog): 5.1 mL/min/kg
Vd ([13]; male, Beagle, plasma, dog, IV 0.2 to 0.5 mg/kg, read-out: Vd,ss (L/kg) Dog): 1.3 L/kg

CCOC(=O)C1=C(CN2CCOCC2)NC(c2nccs2)=NC1c1ccc(F)cc1Br (centres unmarked) [GLS4, reference compound]
HBV capsid (formation of DNA- and RNA-devoid capsid) (HBV capsid; various concentrations): induced formation of DNA- and RNA-devoid capsid
Intracellular HBV core protein level (HBV capsid; western blot): reduced intracellular HBV core protein level in the concentration-dependent manner
Fold change in EC50, U95551 (wild-type) [4]: B (B=1-5)
Fold change in EC50, F23Y [5]: C (C=5-15)
Fold change in EC50, D29G [6]: B (B=1-5)
Fold change in EC50, T33N [7]: D (D>15)
Fold change in EC50, I105T [8]: B (B=1-5)
Fold change in EC50, T109I [9]: C (C=5-15)
Fold change in EC50, T109M [10]: B (B=1-5)
Fold change in EC50, Y118F [11]: B (B=1-5)
